Source: paper doi:10.1101/2025.03.14.643404, “A Bivalent Molecular Glue Linking Lysine Acetyltransferases to Oncogene-induced Cell Death” (bioRxiv, 2025)

Target: T1, BCL6 (Homo sapiens, UniProt P41182+Q09472+Q92793)
T1 construct: endogenous in cells; host or cells: SUDHL5
Test: Acetyl-lysine IP and western blot for BCL6 in SUDHL5
Assay type: cell-based
Conditions: SUDHL5, 1 hour
Method: Cells were plated at 1M/mL and treated with compound or DMSO at indicated timepoints and doses. Cells were harvested on ice, counted, normalized by count, and washed 1X in PBS containing compound or DMSO. For only BCL6 immunoprecipitation, compound or DMSO was maintained in nuclear preparation buffers at identical concentration to cell treatment throughout. Nuclei were prepared by incubation in Buffer A (25 mM HEPES pH 7.5, 25 mM KCl, 0.05 mM EDTA, 1mM MgCl2, 10% glycerol, 0.1% NP-40) supplemented with protease inhibitors (1 mM PMSF, ~[…] pepstatin, aprotinin, and leupeptin) at 4 °C for 7 mins. Nuclear preparation was confirmed by Trypan blue staining and nuclei were pelleted by centrifugation for 5 min at 500g at 4 °C. Pelleted nuclei were resuspended in IP Buffer (25 mM HEPES pH 7.5, 150mM KCl, 0.05 mM EDTA, 1 mM MgCl2, 10% glycerol, 0.1% NP-40) supplemented with protease inhibitors and 1 μL/250 units benzonase (Sigma E1014). Chromatin was removed by incubation with rotation for 30 min and nuclei sheared using a 27-gauge needle exactly five times. […]
Cells were plated at 1M/mL and treated with drug at indicated timepoints and doses. […] After 10 min centrifugation at 14,000g and 4 °C, the supernatant was collected and protein concentration was measured by Bradford. […] ImageStudio (Licor) was used for blot imaging and quantification.

T1 sequence (Q09472 2-2414 limits assumed, other chains not shown): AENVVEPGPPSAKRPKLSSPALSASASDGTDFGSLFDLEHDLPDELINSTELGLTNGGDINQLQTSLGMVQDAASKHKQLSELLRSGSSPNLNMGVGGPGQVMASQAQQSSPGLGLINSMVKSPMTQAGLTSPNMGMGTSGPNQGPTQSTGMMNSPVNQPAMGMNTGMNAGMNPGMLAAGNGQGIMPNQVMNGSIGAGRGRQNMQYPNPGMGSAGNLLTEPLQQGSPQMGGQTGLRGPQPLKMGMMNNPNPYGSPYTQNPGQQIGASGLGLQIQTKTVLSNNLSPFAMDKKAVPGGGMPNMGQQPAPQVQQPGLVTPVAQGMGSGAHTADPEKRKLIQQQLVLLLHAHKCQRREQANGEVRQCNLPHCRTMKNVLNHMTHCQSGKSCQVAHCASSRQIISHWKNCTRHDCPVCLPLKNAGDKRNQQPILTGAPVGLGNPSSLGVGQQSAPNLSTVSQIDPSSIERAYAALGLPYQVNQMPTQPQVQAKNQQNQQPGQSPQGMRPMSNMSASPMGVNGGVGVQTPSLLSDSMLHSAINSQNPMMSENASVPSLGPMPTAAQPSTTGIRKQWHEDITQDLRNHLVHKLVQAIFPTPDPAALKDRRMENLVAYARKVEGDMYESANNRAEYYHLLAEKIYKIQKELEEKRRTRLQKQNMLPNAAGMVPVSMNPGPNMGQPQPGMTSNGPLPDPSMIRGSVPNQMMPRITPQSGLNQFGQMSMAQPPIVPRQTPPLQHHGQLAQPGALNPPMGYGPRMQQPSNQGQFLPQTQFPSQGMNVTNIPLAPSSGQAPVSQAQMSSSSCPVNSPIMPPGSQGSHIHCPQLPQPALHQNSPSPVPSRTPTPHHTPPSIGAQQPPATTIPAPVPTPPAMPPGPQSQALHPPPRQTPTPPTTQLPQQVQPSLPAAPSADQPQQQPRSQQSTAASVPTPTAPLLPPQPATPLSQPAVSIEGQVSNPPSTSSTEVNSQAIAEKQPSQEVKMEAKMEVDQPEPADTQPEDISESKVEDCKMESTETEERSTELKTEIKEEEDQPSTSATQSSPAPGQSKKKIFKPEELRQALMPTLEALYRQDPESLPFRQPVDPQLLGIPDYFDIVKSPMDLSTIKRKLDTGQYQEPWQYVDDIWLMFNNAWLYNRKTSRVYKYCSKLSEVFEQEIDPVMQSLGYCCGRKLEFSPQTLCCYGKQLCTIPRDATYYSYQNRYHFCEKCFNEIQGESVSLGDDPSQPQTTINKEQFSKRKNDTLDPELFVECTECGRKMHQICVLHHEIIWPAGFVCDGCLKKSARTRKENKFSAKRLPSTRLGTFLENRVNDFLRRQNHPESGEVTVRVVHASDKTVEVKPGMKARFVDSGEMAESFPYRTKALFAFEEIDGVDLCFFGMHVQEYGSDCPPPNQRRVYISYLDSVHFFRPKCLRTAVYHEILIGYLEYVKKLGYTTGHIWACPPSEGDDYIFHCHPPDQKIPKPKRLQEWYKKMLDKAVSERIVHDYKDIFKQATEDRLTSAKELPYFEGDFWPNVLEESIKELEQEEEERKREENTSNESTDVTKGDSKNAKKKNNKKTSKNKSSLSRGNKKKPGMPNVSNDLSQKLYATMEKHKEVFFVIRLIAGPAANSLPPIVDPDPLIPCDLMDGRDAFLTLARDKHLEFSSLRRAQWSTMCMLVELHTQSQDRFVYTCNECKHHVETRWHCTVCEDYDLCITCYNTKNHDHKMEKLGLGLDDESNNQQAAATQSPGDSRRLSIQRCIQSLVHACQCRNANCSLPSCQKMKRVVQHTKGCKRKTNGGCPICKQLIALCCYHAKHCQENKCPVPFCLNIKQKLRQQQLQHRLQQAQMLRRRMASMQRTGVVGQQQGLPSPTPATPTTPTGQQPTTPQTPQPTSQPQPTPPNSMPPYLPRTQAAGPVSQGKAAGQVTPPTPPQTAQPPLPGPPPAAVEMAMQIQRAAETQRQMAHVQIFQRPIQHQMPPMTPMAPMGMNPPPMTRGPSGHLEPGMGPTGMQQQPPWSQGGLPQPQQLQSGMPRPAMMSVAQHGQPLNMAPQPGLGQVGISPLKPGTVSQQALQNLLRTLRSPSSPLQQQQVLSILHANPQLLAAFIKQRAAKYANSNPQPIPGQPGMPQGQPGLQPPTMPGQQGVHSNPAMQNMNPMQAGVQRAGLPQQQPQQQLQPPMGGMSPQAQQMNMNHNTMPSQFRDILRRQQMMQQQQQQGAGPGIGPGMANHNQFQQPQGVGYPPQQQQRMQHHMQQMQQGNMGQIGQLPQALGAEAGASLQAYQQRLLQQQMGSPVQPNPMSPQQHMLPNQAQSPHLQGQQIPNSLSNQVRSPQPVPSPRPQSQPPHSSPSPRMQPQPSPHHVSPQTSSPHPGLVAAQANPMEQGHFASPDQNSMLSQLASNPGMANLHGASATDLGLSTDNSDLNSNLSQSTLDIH
T1 sequence (Q92793 2-2442 limits assumed, other chains not shown): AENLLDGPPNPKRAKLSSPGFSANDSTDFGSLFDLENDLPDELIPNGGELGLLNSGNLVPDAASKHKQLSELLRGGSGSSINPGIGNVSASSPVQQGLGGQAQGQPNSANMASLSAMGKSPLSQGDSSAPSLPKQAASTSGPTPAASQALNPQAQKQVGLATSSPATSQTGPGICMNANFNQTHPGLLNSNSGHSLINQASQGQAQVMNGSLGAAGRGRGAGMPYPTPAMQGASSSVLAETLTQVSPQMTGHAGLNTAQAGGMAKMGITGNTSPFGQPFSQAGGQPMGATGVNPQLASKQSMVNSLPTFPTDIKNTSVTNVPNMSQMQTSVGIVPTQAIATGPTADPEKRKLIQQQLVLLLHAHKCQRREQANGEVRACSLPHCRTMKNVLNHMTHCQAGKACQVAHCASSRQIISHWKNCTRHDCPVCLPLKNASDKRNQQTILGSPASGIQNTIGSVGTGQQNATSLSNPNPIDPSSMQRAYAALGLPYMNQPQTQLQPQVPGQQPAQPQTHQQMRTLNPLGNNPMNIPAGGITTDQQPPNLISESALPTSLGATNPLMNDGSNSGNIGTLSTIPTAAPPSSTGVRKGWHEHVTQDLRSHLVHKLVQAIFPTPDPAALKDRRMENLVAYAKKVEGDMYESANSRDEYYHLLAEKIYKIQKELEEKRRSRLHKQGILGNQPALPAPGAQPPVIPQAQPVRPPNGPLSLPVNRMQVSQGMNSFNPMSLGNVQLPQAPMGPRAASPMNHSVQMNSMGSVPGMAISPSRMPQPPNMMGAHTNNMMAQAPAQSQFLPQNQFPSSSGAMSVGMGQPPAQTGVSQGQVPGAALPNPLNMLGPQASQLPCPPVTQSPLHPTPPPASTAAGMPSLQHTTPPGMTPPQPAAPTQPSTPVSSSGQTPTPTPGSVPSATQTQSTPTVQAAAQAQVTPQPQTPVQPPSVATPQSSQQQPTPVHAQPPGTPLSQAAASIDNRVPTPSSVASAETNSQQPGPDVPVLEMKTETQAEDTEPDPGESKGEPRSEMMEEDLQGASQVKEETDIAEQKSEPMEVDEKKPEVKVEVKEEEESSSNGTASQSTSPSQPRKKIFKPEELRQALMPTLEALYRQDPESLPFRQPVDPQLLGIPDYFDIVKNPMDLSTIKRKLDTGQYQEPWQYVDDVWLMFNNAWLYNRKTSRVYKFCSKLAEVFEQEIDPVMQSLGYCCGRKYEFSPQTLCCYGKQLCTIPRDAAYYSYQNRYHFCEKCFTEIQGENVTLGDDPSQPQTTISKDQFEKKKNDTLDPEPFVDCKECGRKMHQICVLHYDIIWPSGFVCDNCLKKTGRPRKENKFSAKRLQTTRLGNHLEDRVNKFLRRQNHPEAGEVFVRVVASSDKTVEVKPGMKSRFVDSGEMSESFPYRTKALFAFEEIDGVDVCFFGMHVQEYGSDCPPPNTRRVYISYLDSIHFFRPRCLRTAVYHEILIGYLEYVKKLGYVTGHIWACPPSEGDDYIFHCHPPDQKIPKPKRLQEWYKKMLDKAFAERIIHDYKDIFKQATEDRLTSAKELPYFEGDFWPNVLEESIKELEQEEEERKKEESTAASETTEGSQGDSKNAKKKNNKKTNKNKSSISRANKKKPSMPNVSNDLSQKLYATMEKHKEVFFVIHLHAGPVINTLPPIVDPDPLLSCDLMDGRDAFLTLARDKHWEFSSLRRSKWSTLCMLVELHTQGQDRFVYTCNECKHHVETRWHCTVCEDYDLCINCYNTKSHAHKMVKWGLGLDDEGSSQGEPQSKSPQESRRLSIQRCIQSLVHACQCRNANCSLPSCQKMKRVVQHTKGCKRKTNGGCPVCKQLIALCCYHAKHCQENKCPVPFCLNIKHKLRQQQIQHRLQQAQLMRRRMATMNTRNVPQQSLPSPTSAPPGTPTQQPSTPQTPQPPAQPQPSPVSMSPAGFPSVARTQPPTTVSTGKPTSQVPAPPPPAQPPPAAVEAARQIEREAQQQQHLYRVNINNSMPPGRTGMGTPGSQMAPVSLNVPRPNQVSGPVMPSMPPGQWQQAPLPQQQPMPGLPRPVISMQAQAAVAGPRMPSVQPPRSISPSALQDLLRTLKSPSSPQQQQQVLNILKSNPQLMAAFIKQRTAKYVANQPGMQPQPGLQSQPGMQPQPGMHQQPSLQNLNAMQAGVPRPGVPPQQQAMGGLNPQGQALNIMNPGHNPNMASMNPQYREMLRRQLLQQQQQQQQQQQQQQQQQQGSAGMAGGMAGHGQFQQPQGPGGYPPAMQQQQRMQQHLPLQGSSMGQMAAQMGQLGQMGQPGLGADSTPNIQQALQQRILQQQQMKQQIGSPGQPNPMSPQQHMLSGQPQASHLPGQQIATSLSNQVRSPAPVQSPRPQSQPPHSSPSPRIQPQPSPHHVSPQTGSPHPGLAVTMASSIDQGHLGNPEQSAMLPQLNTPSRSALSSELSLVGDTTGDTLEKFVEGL

concentration at which increase of acetylated BCL6 begins: 1 nM
Compound: CNC(=O)COc1cc2cc(Nc3nc(N4CCC(C(=O)N5CCN(CCC(=O)N6CCC(n7nc(N8CCCc9cc(-c%10cnn(C)c%10)c(C(F)F)cc98)c8c7CCN(C(=O)NC)C8)CC6)CC5)CC4)ncc3Cl)cc(OC)c2n(C)c1=O [TCIP3]
